Experimental data reported in patent US20260165973A1 (MERCK SHARP & DOHME LLC, priority 2023, published 2026).

Experiments:
[1] = open container at 5° C./ambient RH, 30° C./65% RH, 40° C./75% RH, and 60° C./ambient RH; cited from earlier work
[2] = Solubility / solubilization assessment of doravirine and islatravir; format: physicochemical; conditions: islatravir: in water and dissolution media
Excerpt: Details are provided in Example 5.
The manufacturing process includes standard unit operations and equipment for tablet production.

Row | Solubility [2] | Compound | Time to crystallization on storage [1] [weeks]
1 |  | Cn1c(Cn2ccc(C(F)(F)F)c(Oc3cc(Cl)cc(C#N)c3)c2=O)n[nH]c1=O [Neat amorphous doravirine, 3-chloro-5-({1-[(4-methyl-5-oxo-4,5-dihydro-1H-1,2,4-triazol-3-yl)methyl]-2-oxo-4-(trifluoromethyl)-1,2-dihydropyridin-3-yl}oxy)benzonitrile] | ≤ 2
2 | high solubility | C#C[C@@]1(CO)O[C@H](n2cnc3c(N)nc(F)nc32)C[C@H]1O [islatravir, (2S,3R,5S)-5-(6-amino-2-fluoro-9H-purin-9-yl)-2-ethynyl-2-(hydroxymethyl)tetrahydrofuran-3-ol] | 
